Experimental data as given in US20260226025A1, “PHARMACEUTICALLY ACCEPTABLE SALT AND CRYSTAL FORM OF TRIAZOLE COMPOUND, AND PREPARATION METHOD THEREFOR” (JIANGSU HENGRUI PHARMACEUTICALS CO., LTD., priority 2023, published 2026).

Biological target: T1, hLPAR1 (human lysophosphatidic acid receptor 1) (Homo sapiens, UniProt Q92633)
T1 construct: host or cells: CHO-K1 (CHO-K1/LPA1R, cultured under hygromycin B selection)
Assay: FLIPR antagonist property test: LPA-induced intracellular calcium elevation in CHO-K1/LPA1R cells
Format: cell-based
Conditions: hLPAR1 expressed in CHO-K1 cells, LPA at EC80, read-out: LPAR1 IC50
Protocol: The antagonist properties of a compound of the present disclosure were assessed using the FLIPR (fluorometric imaging plate reader) method. The compound is an inhibitor of intracellular calcium elevation induced by activation of hLPAR1 (human lysophosphatidic acid receptor 1) expressed in CHO-K1 cells (Chinese hamster ovary K1 cells, HDB). • 1. Experimental reagents and instrument consumables
• 2. Reagent preparation • 2.1. Reaction buffer: HBSS+20 mM HEPES+0.1% fatty acid-free BSA+0.001% F-127 • 2.2. 50× Red dye: (a red dye for blocking background signals in cells) prepared by: weighing out 4 g of tartrazine and 10.2 g of acid red and dissolving them in 100 mL of H2O. • 2.3. Fluo-8 staining mixture: 4 mL of reaction buffer, 32 μL of fluo-8, 320 μL of 50× Red dye, and 40 μL of probenecid. • 3. Compound preparation • 3.1. […] When the cells became round, the digestion was stopped with culture medium F-12 (10% FBS), and the cells were counted. […] An FLIPR was correspondingly programmed, the 6×LPA gradient solutions were added, and readings were taken. […] A reaction curve was obtained from the numerical values of LPA, and the concentration of LPA at EC80 was calculated. […] An FLIPR was correspondingly programmed, the 6×LPA solution was added, and readings were taken. […] Finally, the output fluorescence counts were analyzed, and the IC50 of the compound was calculated. • 5. […]

T1 sequence (Q92633 whole entry): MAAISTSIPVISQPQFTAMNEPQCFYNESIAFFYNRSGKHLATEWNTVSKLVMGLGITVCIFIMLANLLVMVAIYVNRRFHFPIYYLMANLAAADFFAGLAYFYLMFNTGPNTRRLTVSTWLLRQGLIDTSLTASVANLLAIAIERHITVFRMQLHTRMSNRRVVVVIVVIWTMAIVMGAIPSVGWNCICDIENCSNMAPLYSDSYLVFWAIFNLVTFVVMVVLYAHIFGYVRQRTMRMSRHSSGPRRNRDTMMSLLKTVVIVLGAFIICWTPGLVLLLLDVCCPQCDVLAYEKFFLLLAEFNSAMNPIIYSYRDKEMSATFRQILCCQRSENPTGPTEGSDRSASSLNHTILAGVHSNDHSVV

COCc1ccnc(OCc2c(-c3ccc(O[C@H]4C[C@@H]5CC[C@H](C(=O)O)[C@@H]5C4)c(C)n3)nnn2C)n1 [Compound 1-P1, (1S,3aS,5S,6aR)-5-((6-(5-(((4-(methoxymethyl)pyrimidin-2-yl)oxy)methyl)-1-methyl-1H-1,2,3-triazol-4-yl)-2-methylpyridin-3-yl)oxy) octahydropentalene-1-carboxylic acid]
IC50: 8.7 nM
